# Experimental data: publication PMC12608320, “Insecticidal Potential of Aniba canelilla (H.B.K.) Mez Essential Oil Against Aedes aegypti: Larvicidal and Adulticidal Activities, Mechanism of Action, and Formulation Development” (Plants, 2025)
# Where “and” joins values, the source holds several entries; their conditions need not be identical. Equal entries are not always repeated.
# What was measured:
# A. aegypti = settings: cited from earlier work
# Aedes aegypti larvae = assay: Larvicidal activity against Aedes aegypti third instar larvae; settings: for LC50 ± SEM (LCL-UCL): L3 larvae
# Method: Eggs of the Rockefeller strain of Aedes aegypti were hatched in filtered water, and larvae were reared under controlled conditions (28 ± 1 °C; 12 h photoperiod) until reaching the third instar (L3). […] Each test condition, including controls, was run in quadruplicate. […] Formulations (PEOANIB, PNFTANE, PNFTENE) were applied with the same protocol used for DMSO-dissolved samples, keeping the final solvent concentration at 1% (v/v) of the total water volume.
# Negative controls contained either DMSO (200 µL) alone or blank nanomicelles (NBr) at a volume matching the highest concentration tested, whereas the positive control comprised temephos at 1 µg mL^−1. After 14 days of preparation of the formulation, an activity confirmation test was performed at fixed concentrations of PNFTANE (70 ppm) and PNFTENE (5 ppm) formulations. The assays were performed in quadruplicate.
# Aedes aegypti females = assay: Adulticidal bottle bioassay (WHO/CDC) against Aedes aegypti females; assay type: in vivo; settings: preliminary tests
# Method: A. aegypti colony was maintained at 26 ± 1 °C, 80 ± 5% relative humidity, and a 12 h light–dark cycle. […] Glass bottles (295 mL) were coated with 1 mL of essential oil solution in analytical-grade acetone. Bottles were left open for 10 min to allow complete solvent evaporation, then acclimated for 1 h with the cap removed. Each bottle received 15–25 unfed adult female A. aegypti and was exposed to 200–50 ppm of the test compound. Deltamethrin (K-Othrine®) at 10 ppm served as the positive control, and acetone-treated bottles as the negative control. Assays were conducted in quadruplicate, with mortality recorded at 15 min intervals over 90 min of continuous exposure. After 90 min, mosquitoes were gently transferred to 500 mL cylindrical paper containers covered with nylon mesh and kept under colony conditions (26 °C, 80% RH, 12 h photoperiod) for knockdown assessment 24 h post-exposure.
# Artemia salina nauplii = assay: Toxicity test on Artemia salina nauplii (non-target); assay type: in vivo; settings: 24 h, metanauplii
# Method: Toxicity assays with Artemia salina followed the procedure of Meyer and collaborators with adaptations like those of [86, 107]. For cyst hatching, 25 mg of eggs were placed in a cuboid-glass vessel containing 600 mL of artificial seawater (38 g L^−1 in distilled water) and incubated at 28–30 °C under continuous illumination from a 40 W incandescent lamp. After 24 h, the nauplii (first larval stage) were transferred to fresh saline and reared for an additional 24 h under the same conditions to obtain metanauplii (second larval stage), which were used in the bioassays. Ten metanauplii were exposed to 10 mL of saline containing the test samples dissolved in DMSO. […] After dosing, organisms were maintained at 28–30 °C under artificial light for 24 h. Mortality defined as immobility or sinking to the bottom was recorded, and LC50 values were calculated for each sample. All experiments were performed in triplicate with independent replicates under identical conditions to ensure reproducibility.
# [1] = target: T1, Acetylcholinesterase (AChE) from Electrophorus electricus (Electrophorus electricus, UniProt O42275); assay: AChE inhibition (Ellman), commercial enzyme; assay type: biochemical; settings: for IC50: commercial enzyme 0.15 U mL^−1
# T1 construct: purchased C3389-2KU
# Method: (§1) Percentage inhibition of AChE was determined by the standard Ellman colorimetric method, with minor adaptations. […] After a 10 min incubation at 30 °C, 20 µL of DTNB (3.0 mM) and 20 µL of acetylthiocholine iodide (10.0 mM) were added. Plates were then incubated for a further 30 min at 30 °C, and end-point absorbance was read at 405 nm and pathlength 0.62 cm on a SpectraMax® 190 microplate reader (Molecular Devices^TM, SoftMax® Pro 5; serial no. SMP500-11007-TIQG).
# [2] = target: acetylcholinesterase from A. aegypti adults homogenate (Aedes aegypti, UniProt Q6A2E2); assay: AChE inhibition (Ellman), A. aegypti adult homogenate; assay type: biochemical; settings: for inhibition at 1500 µg/mL: at 1.5 mg∙mL^−1 (1500 µg mL^−1), read-out: Inhibition Rate (%) ± SD
# Method: (§2) A total of 250 third instar larvae (370.1 mg) and 250 adults (163.8 mg) of A. aegypti, together with 150 adults of D. melanogaster (134.6 mg), were collected. Each group was placed in a separate 50 mL Falcon tube and frozen at −20 °C to arrest metabolic activity. After freezing, 5 mL of ultrapure water were added to each tube, and the contents were mechanically homogenized on ice using an IKA Ultra-Turrax® homogenizer (model T10BS32) at speed setting 4 for 5 min. The resulting homogenates were transferred to centrifuge tubes and spun at 10,000 rpm for 5 min at 4 °C in a refrigerated centrifuge. Supernatants were carefully collected, aliquoted and stored at −20 °C for biochemical analyses performed within 24 h. After preparation, the homogenates contained 50 insects/mL (larvae) and 30 insects/mL (adult Aedes aegypti and Drosophila melanogaster). These preparations were subsequently used for acetylcholinesterase inhibition activity, total-protein quantification by the BCA method, and calculation of specific catalytic units per individual.
# as §1
# [3] = target: acetylcholinesterase from A. aegypti larvae homogenate (Aedes aegypti, UniProt Q6A2E2); assay: AChE inhibition (Ellman), A. aegypti L3 larvae homogenate; assay type: biochemical; settings: for inhibition at 1500 µg/mL: at 1.5 mg∙mL^−1 (1500 µg mL^−1), read-out: Inhibition Rate (%) ± SD
# Method: as §2, §1
# [4] = target: T2, acetylcholinesterase from D. melanogaster adults homogenate (Drosophila melanogaster, UniProt P07140); assay: AChE inhibition (Ellman), D. melanogaster adult homogenate; assay type: biochemical; settings: for inhibition at 1500 µg/mL: at 1.5 mg∙mL^−1 (1500 µg mL^−1), read-out: Inhibition Rate (%) ± SD
# T2 construct: from tissue; host or cells: whole-body homogenate supernatant of adult D. melanogaster (laboratory colony)
# Method: as §2, §1
# Leishmania amazonensis = test system: Leishmania amazonensis; parameters: method as in doi:10.1590/S0103-50532009000600011; settings: cited from earlier work
# macrophages = test system: macrophages; parameters: method as in doi:10.1590/S0103-50532009000600011; settings: cited from earlier work
# Trypanosoma evansi = test system: Trypanosoma evansi; parameters: method as in PMID 27988226; settings: at 0.5–2.0%; cited from earlier work
# [5] = parameters: method as in PMID 20406629; settings: Wistar rats, 5–10 mg/kg; cited from earlier work
# Artemia salina = settings: cited from earlier work
structure (smiles),measurement,setting,value
CC1=CCC2CC1C2(C)C (stereo not drawn) [α-pinene],LC50 (adulticidal activity of minor constituents),A. aegypti,17.3–56.5 ppm
C=C1CC/C=C(\C)CC[C@@H]2[C@@H]1CC2(C)C [β-caryophyllene],LC50 (adulticidal activity of minor constituents),A. aegypti,26 ppm
"O=[N+]([O-])C=Cc1ccccc1 [NFTENE, 1-Nitro-2-phenylethene]",LC50 ± SEM (LCL-UCL),Aedes aegypti larvae; 24 h exposure,10.9 ppm
same,LC50 ± SEM (LCL-UCL),Aedes aegypti larvae; 48 h exposure,7.7 ppm
same,adult mortality,Aedes aegypti females; 100 ppm,no adult mortality
same,LC50 ± SEM (CI),Artemia salina nauplii,1.9 ppm
same,Slope ± SEM,[1],1.283 ± 0.094
same,IC50,[1],998 µM
same,Slope ± SEM,[2],0.86 ± 0.07
same,inhibition at 100 µg/mL,[2]; 100 μg.mL^−1,4.5%
same,inhibition at 250 µg/mL,[2]; 250 μg.mL^−1,11.2%
same,inhibition at 500 µg/mL,[2]; 500 μg.mL^−1,15.1%
same,inhibition at 1000 µg/mL,[2]; 1000 μg.mL^−1,26.6%
same,inhibition at 1500 µg/mL,[2],34 ± 2.18%
same,Slope ± SEM,[3],0.72 ± 0.06
same,inhibition at 25 µg/mL,[3]; 25 μg.mL^−1,15.5%
same,inhibition at 50 µg/mL,[3]; 50 μg.mL^−1,14.9%
same,inhibition at 100 µg/mL,[3]; 100 μg.mL^−1,23.1%
same,inhibition at 250 µg/mL,[3]; 250 μg.mL^−1,26.8%
same,inhibition at 500 µg/mL,[3]; 500 μg.mL^−1,38%
same,inhibition at 1000 µg/mL,[3]; 1000 μg.mL^−1,57.1%
same,inhibition at 1500 µg/mL,[3],71.8 ± 2.21%
same,IC50,[4],21000 µM
same,Slope ± SEM,[4],2.02 ± 0.20
same,inhibition at 500 µg/mL,[4]; 500 μg.mL^−1,2.4%
same,inhibition at 1000 µg/mL,[4]; 1000 μg.mL^−1,9.1%
same,inhibition at 1500 µg/mL,[4],18.4 ± 2.11%
"O=[N+]([O-])CCc1ccccc1 [NFTANE, 1-Nitro-2-phenylethane]",LC50 ± SEM (LCL-UCL),Aedes aegypti larvae; 24 h exposure,84.8 ppm and 85.8 ppm
same,LC50 ± SEM (LCL-UCL),Aedes aegypti larvae; 48 h exposure,83.6 ppm
same,LC50,Aedes aegypti larvae; exposure time not given,84–87 ppm
same,adulticidal effects compared with EOANIB,Aedes aegypti females,comparable adulticidal effects to EOANIB
same,Slope ± SEM,[1],1.175 ± 0.066
same,IC50,[1],1250 µM
same,inhibition at 1500 µg/mL,[2],≤ 10%
same,inhibition at 1500 µg/mL,[3],≤ 10%
same,inhibition at 1500 µg/mL,[4],≤ 10%
same,IC50,Leishmania amazonensis,40 µg/mL
same,fold less cytotoxic to macrophages than pentamidine,macrophages,approximately 2.5 fold
same,activity against Trypanosoma evansi,Trypanosoma evansi,shows activity
same,effect on blood pressure,[5],significantly lowering blood pressure
"COP(=S)(OC)Oc1ccc(Sc2ccc(OP(=S)(OC)OC)cc2)cc1 [Temephos, reference compound]",mortality at 1 ppm,"Aedes aegypti larvae; Aedes aegypti, read-out: larval mortality",100%
CCCSP(=O)(OCC)Oc1ccc(Br)cc1Cl (centres unmarked) [profenofos],LC50,Artemia salina,7.71 ppm
"N=C(N)c1ccc(OCCCCCOc2ccc(C(=N)N)cc2)cc1 [pentamidine, reference compound]",IC50,Leishmania amazonensis,4.8 µg/mL
CCOP(=S)(OCC)Oc1nc(Cl)c(Cl)cc1Cl [chlorpyrifos],LC50,Artemia salina,0.38 ppm
